Consider 4 molecules from ChEMBL document CHEMBL4837190, “Targeted Isolation of Hemitheion from Mostuea brunonis, a Proposed Biosynthetic Intermediate of Theionbrunonines” (J Nat Prod, 2021).

One assay relates to MRC5. Nature of the assay: Cytotoxicity against human MRC5 cells assessed as growth inhibition measured after 72 hrs by MTS assay. It is filed as cell-based. The settings on record: MRC5, 72 h. A general note: Tetrazolium assays rely on reduction of a dye to a coloured formazan, in cell work by metabolically active cells.
Another assay relates to Plasmodium falciparum. Nature of the assay: Antiplasmodial activity against chloroquine-resistant Plasmodium falciparum FcB1/Colombia infected in human red blood cells assessed as reduction in [3H]-hypoxanthine incorporation measured after 24 hrs liquid scintillation counting method. The settings on record: Erythrocyte. It is filed as functional, organism-based, RBC.

Where only a bound is given, the exact number is not on record here.

As usually defined, the IC50 is the concentration needed to halve the response being measured. For the molecule `CC[C@H]1N[C@H]2C[C@@]3(C(=O)N(OC)c4ccccc43)[C@@H]3C[C@@H]1[C@@H]2CO3`, the values for the IC50 in the assay on MRC5 and in the assay on Plasmodium falciparum were over 50 µM and 42.5 µM, respectively.
The matching figures for `C/C=C1/CN(C)[C@@H]2Cc3c([nH]c4ccccc34)[C@@H](S)C[C@H]1[C@H]2C(=O)OC`: over 50 µM and 1.05 µM.
The like results for `CC[C@H]1N[C@H]2C[C@@]3(C(=O)N(OC)c4cc(OC)ccc43)[C@@H]3C[C@@H]1[C@@H]2CO3` were, in that order, over 50 µM and 59.5 µM.
Take `C/C=C1/CN(C)[C@@H]2Cc3c([nH]c4ccccc34)C(=O)C[C@H]1[C@H]2C(=O)OC`: the IC50 in the assay with MRC5 is over 50 µM; in the assay on Plasmodium falciparum it was 22.5 µM.
